We go through 4 molecules from ChEMBL document CHEMBL5034035, “Discovery of an Oxycyclohexyl Acid Lysophosphatidic Acid Receptor 1 (LPA1) Antagonist BMS-986278 for the Treatment of Pulmonary Fibrotic Diseases” (J Med Chem, 2021).

Bounds are passed on as bounds.

One data set deals with Bile salt export pump (Homo sapiens, UniProt O95342). The data set is described as follows: Inhibition of BSEP (unknown origin). Format: ADME.
The target of data set [1] is T1, Solute carrier organic anion transporter family member 1B1 (Homo sapiens, UniProt Q9Y6L6).
T1 sequence (Q9Y6L6 whole entry): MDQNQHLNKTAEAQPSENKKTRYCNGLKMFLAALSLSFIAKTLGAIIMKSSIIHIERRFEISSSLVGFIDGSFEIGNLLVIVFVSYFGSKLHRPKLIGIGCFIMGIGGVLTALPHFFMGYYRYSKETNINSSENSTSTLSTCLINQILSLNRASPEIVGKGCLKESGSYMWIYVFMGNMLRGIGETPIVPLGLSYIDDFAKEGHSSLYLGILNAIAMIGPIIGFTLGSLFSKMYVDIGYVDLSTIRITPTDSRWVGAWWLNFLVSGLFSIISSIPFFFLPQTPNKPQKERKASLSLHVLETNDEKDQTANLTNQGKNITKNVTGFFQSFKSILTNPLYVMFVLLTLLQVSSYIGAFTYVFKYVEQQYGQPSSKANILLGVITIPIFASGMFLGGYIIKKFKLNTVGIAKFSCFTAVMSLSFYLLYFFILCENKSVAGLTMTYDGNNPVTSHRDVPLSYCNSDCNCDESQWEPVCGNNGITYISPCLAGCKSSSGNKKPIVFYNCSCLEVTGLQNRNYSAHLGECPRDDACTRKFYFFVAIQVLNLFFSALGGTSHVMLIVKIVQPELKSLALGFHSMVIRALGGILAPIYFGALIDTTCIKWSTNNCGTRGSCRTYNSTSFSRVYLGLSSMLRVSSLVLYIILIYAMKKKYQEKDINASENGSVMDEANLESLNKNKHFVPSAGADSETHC
The data set is described as follows: Inhibition of OATP1B1 (unknown origin). Type of data set: ADME.

A short description of data set [2]: Drug concentration in po dosed monkey plasma assessed as concentration of parent compound. Type of data set: ADME, organism-based, Macaca mulatta. Particulars: rhesus monkey, in vivo.
Data set [3] in a line: Protein binding in human plasma assessed as free fraction at 3 mg/kg, po or 1 mg/kg, iv measured up to 24 hrs by LC-MS/MS analysis. Type of data set: ADME, organism-based.
Data set [4] can be described thus: Protein binding in Sprague-Dawley rat plasma assessed as free fraction at 3 mg/kg, po or 1 mg/kg, iv measured up to 24 hrs by LC-MS/MS analysis. Type of data set: ADME, organism-based.
The nature of data set [5]: Protein binding in CD-1 mouse plasma assessed as free fraction at 3 mg/kg, po or 1 mg/kg, iv measured up to 24 hrs by LC-MS/MS analysis. Format: ADME, organism-based.

Bile salt export pump, sequence (O95342 whole entry): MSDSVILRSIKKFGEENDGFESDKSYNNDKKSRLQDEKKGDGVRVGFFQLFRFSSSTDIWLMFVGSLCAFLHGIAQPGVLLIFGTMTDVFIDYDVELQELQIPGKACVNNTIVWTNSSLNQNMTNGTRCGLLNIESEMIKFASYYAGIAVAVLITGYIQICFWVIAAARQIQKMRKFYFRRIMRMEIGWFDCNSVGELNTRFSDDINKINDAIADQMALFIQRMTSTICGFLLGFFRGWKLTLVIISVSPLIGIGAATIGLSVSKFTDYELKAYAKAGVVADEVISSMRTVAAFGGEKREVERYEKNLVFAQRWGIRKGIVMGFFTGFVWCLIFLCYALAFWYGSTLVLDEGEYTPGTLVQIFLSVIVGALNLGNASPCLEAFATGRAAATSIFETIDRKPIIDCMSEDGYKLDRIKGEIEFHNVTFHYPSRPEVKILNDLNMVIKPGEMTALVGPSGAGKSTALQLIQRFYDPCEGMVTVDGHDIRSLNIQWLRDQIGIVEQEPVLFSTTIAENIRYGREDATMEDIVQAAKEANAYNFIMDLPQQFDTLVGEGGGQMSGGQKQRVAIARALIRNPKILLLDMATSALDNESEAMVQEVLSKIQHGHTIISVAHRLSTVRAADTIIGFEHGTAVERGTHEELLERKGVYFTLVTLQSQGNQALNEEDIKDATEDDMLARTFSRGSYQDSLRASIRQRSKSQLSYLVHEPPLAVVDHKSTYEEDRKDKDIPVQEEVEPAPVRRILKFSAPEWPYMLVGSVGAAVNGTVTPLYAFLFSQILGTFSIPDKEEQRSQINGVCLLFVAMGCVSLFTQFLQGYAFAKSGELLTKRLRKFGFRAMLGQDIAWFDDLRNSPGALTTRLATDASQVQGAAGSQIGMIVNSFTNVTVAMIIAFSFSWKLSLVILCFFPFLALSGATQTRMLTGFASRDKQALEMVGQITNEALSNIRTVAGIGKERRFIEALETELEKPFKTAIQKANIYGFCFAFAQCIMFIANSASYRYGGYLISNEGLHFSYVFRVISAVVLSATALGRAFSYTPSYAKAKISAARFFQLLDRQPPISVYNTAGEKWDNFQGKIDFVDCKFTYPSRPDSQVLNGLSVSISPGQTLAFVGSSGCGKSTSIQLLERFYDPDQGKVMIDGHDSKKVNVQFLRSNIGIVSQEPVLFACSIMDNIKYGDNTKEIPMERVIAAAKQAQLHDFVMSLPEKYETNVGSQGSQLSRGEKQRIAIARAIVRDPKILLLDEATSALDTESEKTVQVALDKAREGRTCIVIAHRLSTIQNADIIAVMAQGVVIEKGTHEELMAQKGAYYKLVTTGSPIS

As a reminder, the IC50 is the point on the concentration scale where inhibition reaches its midpoint. With `Cc1noc(-c2ccc(O[C@H]3CCC[C@H](C(=O)O)C3)nn2)c1COC(=O)N(C)C1CCCC1` (racemic), the IC50 at Bile salt export pump was above 50 µM; in data set [1], 35.4 µM.

Take `CCCN(C)C(=O)OCc1c(-c2ccc(O[C@H]3CCC[C@H](C(=O)O[C@@H]4O[C@H](C(=O)O)[C@@H](O)[C@H](O)[C@H]4O)C3)c(C)n2)nnn1C`: the Drug uptake in data set [2] is recorded as below 10%.

One may read the fraction unbound as the share of the substance not bound to proteins or other matrix. As to `CN(C(=O)OCc1c(-c2ccc(O[C@H]3CCC[C@H](C(=O)O)C3)cn2)nnn1C)C1CCCC1`, the fraction unbound at 24 h in data set [3] came to 0.025; in data set [4] it was 0.025; in data set [5], 0.083. For the same molecule, the IC50 on Bile salt export pump amounted to 46.3 µM; in data set [1] it was 9.2 µM.

For `CCCNC(=O)OCc1c(-c2ccc(O[C@H]3CCC[C@H](C(=O)O)C3)c(C)n2)nnn1C`, the Drug uptake in data set [2] is recorded as below 10%.
